Test results: US9060991B2, “Use of GLP-1 analogues for the treatment of disorders associated with dysfunctional synaptic transmission” (Innovation Ulster Limited, priority 2007, dated 2015)
Where no end group is shown, it is not given here.

Experiments:
Type in all cases: in vivo, Male Wistar rats
[1] = system: long-term potentiation of synaptic transmission (EPSP slope, CA1 region of hippocampus); experiment: LTP in hippocampal CA1 after icv GLP-1 peptides, weak HFS protocol; conditions: 15 nmol in 5 μl icv, LTP induced 30 min post-injection (time not given for FIG. 3A)
From the text: (§1) Male Wistar rats weighing 220-280 g were anaesthetised with urethane (ethyl carbamate, 1.8 g/kg, intraperitoneal, (i.p.)) for the duration of all experiments. The animals had been obtained from Harlan, United Kingdom (UK). A cannula (22 gauge, 0.7 mm outer diameter, 11 mm in length, Bilaney, Kent, UK) was implanted (1.5 mm anterior to bregma, 0.5 mm lateral to the midline and 3.55 mm ventral) into the left hemisphere for intracerebroventricular (icv) injections. Electrodes (tungsten with Teflon® coating, Bilaney, Kent, UK) were implanted unilaterally 3.4 mm posterior and 2.5 mm lateral to the midline, and the stimulating electrode 4.2 mm posterior to bregma and 3.8 mm lateral to the midline. […] Recordings of EPSPs were made from the stratum radiatum in the CA1 region of the right hippocampal hemisphere in response to stimulation of the Schaffer collateral/commissural pathway. Field EPSPs were recorded on a computerised stimulating and recording unit (PowerLab, ADI instruments, UK) in which the trigger threshold was adjustable. The triggered unit activated a constant current stimulus isolation unit (Neurolog, UK). The data acquisition system was triggered simultaneously to record all events. Sampling speed was at 20 kHz recording of EPSPs.
(§2) The ‘strong’ high frequency stimulation (HFS) protocol for inducing long-term potentiation (LTP) consisted of 3 trains of 200 stimuli, inter-stimulus interval 5 ms (200 Hz), inter-train interval 2 sec. […] The ‘weak’ HFS protocol for inducing LTP consisted of 10 trains of 10 stimuli, inter-stimulus interval 5 ms (200 Hz). The strong HFS was used to test the effects of peptides that impair LTP (beta-amyloid), and the weak HFS was used to test peptides that facilitate LTP. In this form of LTP, the control group is not potentiated at a maximal rate, and LTP can decay slowly over time. Stimulation intensity was 70% of the maximum EPSP. LTP was measured as % of baseline EPSP slope recorded over a 30 min period prior to drug injection and 60 min prior to application of HFS. Baseline was recorded for 30 min and averaged. This value was taken as 100% of the EPSP slope and all recoded values were normalised to this baseline value. All experiments were licensed according to UK Home Office regulations, and the “Principles of laboratory animal care” (NIH publication No. 86-23, revised 1985) were followed.
Beta-amyoid (25-35) and other peptides used in this study were synthesised on an Applied Biosystems automated peptides synthesiser (Model 432A) using standard solid-phase Fmoc protocols. Peptides were judged pure by reversed phase HPLC on a waters Millenium 2010 chromatography system, and peptides were subsequently characterised using matrix-assisted laser desorption/ionisation time of flight (MALDI-TOF) mass spectrometry as described previously (Gengler et al., 2006; Hölscher et al., 2007). Peptides were stored in dry form and dissolved in double distilled water before the experiments. 5 μl of peptides solution was injected icv.
(§3) Each group consisted of 6 animals. Data were analysed using a repeated measures two-way ANOVA, or a repeated measures three level two-way ANOVA with post-hoc tests to discriminate between groups (PRISM, GraphPad software Inc; USA). […]
Male Wistar rats were icv injected with either vehicle (Control,) or 15 nmol Val(8)GLP-1 (♦). LTP was induced 30 min post-injection using the HFS (weak protocol), and the change in EPSP assessed and graphed to represent the change in LTP (FIG. 3B). […]

[2] = system: long-term potentiation of synaptic transmission (EPSP slope, CA1 region of hippocampus); experiment: Val(8)GLP-1 against beta-amyloid(25-35)-induced impairment of LTP; conditions: for impairing effect of beta-amyloid on LTP: LTP induced 15 min post-βA injection
From the text: as §1, §2
Beta-amyoid (25-35) and other peptides used in this study were synthesised on an Applied Biosystems automated peptides synthesiser (Model 432A) using standard solid-phase Fmoc protocols. […]
as §3

[3] = system: long-term potentiation of synaptic transmission (EPSP slope, CA1 region of hippocampus); experiment: LTP in hippocampal CA1 after icv beta-amyloid(25-35), strong HFS protocol; conditions: LTP induced 15 min post-injection, control = scrambled peptide
From the text: Male Wistar rats weighing 220-280 g were anaesthetised with urethane (ethyl carbamate, 1.8 g/kg, intraperitoneal, (i.p.)) for the duration of all experiments. The animals had been obtained from Harlan, United Kingdom (UK). A cannula (22 gauge, 0.7 mm outer diameter, 11 mm in length, Bilaney, Kent, UK) was implanted (1.5 mm anterior to bregma, 0.5 mm lateral to the midline and 3.55 mm ventral) into the left hemisphere for intracerebroventricular (icv) injections. Electrodes (tungsten with Teflon® coating, Bilaney, Kent, UK) were implanted unilaterally 3.4 mm posterior and 2.5 mm lateral to the midline, and the stimulating electrode 4.2 mm posterior to bregma and 3.8 mm lateral to the midline. […] Field EPSPs were recorded on a computerised stimulating and recording unit (PowerLab, ADI instruments, UK) in which the trigger threshold was adjustable. […]
The ‘strong’ high frequency stimulation (HFS) protocol for inducing long-term potentiation (LTP) consisted of 3 trains of 200 stimuli, inter-stimulus interval 5 ms (200 Hz), inter-train interval 2 sec. […] LTP was measured as % of baseline EPSP slope recorded over a 30 min period prior to drug injection and 60 min prior to application of HFS. Baseline was recorded for 30 min and averaged. […]
LTP was induced 15 min post-injection using the HFS (strong protocol), and the change in EPSP assessed and graphed to represent the change in LTP (FIG. 2). […]

## Asp(7)GLP-1: analogue of human GLP-1 with Asp at position 7, SEQ ID NO: 3 (DAEGTFTSDVSSYLEGQAAKEFIAWLVKGR; Synthetic peptide analogue derived from human GLP-1)
[1]
  effect on LTP (change in EPSP) versus control: enhanced long-term potentiation (LTP) compared with control

## GLP-1(7-36)amide: the natural hormone GLP-1(7-36)amide (HAEGTFTSDVSSYLEGQAAKEFIAWLVKGR-NH2; listed as Homo sapiens) [reference compound]
[1]
  effect on LTP (change in EPSP) versus control: difference between the GLP-1(7-36)amide group and control

## GLP-1(9-36)amide [reference compound]
[1]
  effect on LTP (change in EPSP) versus control: no difference between the GLP-1(9-36)amide group and the control group

## Pro(9)GLP-1: analogue of human GLP-1 with Pro at position 9, SEQ ID NO: 5 (HAPGTFTSDVSSYLEGQAAKEFIAWLVKGR; Synthetic peptide analogue derived from human GLP-1)
[1]
  effect on LTP (change in EPSP) versus control: enhanced long-term potentiation (LTP) compared with control

## Val(8)GLP-1: analogue of human GLP-1 with Val at position 8, SEQ ID NO: 4
[2]; Val(8)GLP-1 15 nmol icv 15 min before beta-amyloid(25-35) 100 nmol icv
  impairing effect of beta-amyloid on LTP: not significantly affected, but a trend became visible
[2]; Val(8)GLP-1 15 nmol icv 30 min before beta-amyloid(25-35) 100 nmol icv
  impairing effect of beta-amyloid on LTP: completely reversed
[2]; Val(8)GLP-1 15 nmol icv simultaneously with beta-amyloid(25-35) 100 nmol icv
  impairing effect of beta-amyloid on LTP: not affected
[1]
  effect on LTP (change in EPSP) versus control: can enhance the induction of LTP

## βA(25-35): beta-amyloid fragment 25-35, peptide that impairs LTP (GSNKGAIIGLM; Amyloid-beta protein 42; UniProt P05067 696-706, looked up, fragment)
[2]; beta-amyloid(25-35) alone, 100 nmol icv, LTP induced 15 min post-injection, FIG. 4A-4C experiments
  effect on LTP (change in EPSP) versus vehicle control: difference between the beta-amyloid(25-35) group and control
[3]; 10 nmol icv
  effect on LTP (change in EPSP) versus control: difference between the 10 nmol group and control
[3]; 100 nmol icv
  effect on LTP (change in EPSP) versus control: difference between the 100 nmol group and control
